From patent US4155912A, “2-Methylpenem-3-carboxylic acid antibiotics” (Bristol-Myers Company, priority 1977, dated 1979)
In brackets after ≈: the same amount, converted by molar mass. Where two headings read alike, the source gives them in different places. Blank lines part the entries; values can stand above or below the compound they belong to.

Legend:
β-lactamases = conditions: as reported in literature; cited from earlier work
bacteria [1] = conditions: as reported in literature; cited from earlier work
Str. pyogenes A-9604 = experiment: MIC by tube dilution, Str. pyogenes A-9604; assay type: cell-based; conditions: Streptococcus pyogenes, A9604, Str. pyogenes A-9604, overnight, 37° C.
Protocol: (§1) The in vitro minimum inhibitory concentrations (MIC) of d,l-2-methylpenem-3-carboxylic acid, (+)-2-methylpenem-3-carboxylic acid and (-)-2-methylpenem-3-carboxylic acid were determined for a number of microorganisms as determined by overnight incubation at 37° C. by tube dilution. Ampicillin was included as a comparison compound.

Str. pneumoniae A-9585 = experiment: MIC by tube dilution, Str. pneumoniae A-9585; assay type: cell-based; conditions: Streptococcus pneumoniae, A9585, Str. pneumoniae A-9585, overnight, 37° C.
Protocol: as §1

Staph. aureus A-9537 = experiment: MIC by tube dilution, Staph. aureus A-9537; assay type: cell-based; conditions: Staphylococcus aureus, 37° C.
Protocol: as §1

E. coli A-15119 = experiment: MIC by tube dilution, E. coli A-15119; assay type: cell-based; conditions: 37° C.
Protocol: as §1

Pr. morganii A-15153 = experiment: MIC by tube dilution, Pr. morganii A-15153; assay type: cell-based; conditions: 37° C.
Protocol: as §1

[2] = tested on: Staph. aureus (Meth-Res) A-15097; experiment: MIC by tube dilution, Staph. aureus (Meth-Res) A-15097; assay type: cell-based; conditions: overnight, 37° C.
Protocol: as §1

E. coli A-20341-1 = experiment: MIC by tube dilution, E. coli A-20341-1; assay type: cell-based; conditions: 37° C.
Protocol: as §1

Ps. aeruginosa A-21213 = experiment: MIC by tube dilution, Ps. aeruginosa A-21213; assay type: cell-based; conditions: 37° C.; for MIC: Pseudomonas aeruginosa, A21213, Ps. aeruginosa A-21213, overnight
Protocol: as §1

Ent. cloacae A-9656 = experiment: MIC by tube dilution, Ent. cloacae A-9656; assay type: cell-based; conditions: 37° C.
Protocol: as §1

K. pneumoniae A-20468 = experiment: MIC by tube dilution, K. pneumoniae A-20468; assay type: cell-based; conditions: 37° C.; for MIC: Klebsiella pneumoniae, A20468, overnight
Protocol: as §1

Ser. marcescens A-20019 = experiment: MIC by tube dilution, Ser. marcescens A-20019; assay type: cell-based; conditions: 37° C.
Protocol: as §1

Pr. rettgeri A-21205 = experiment: MIC by tube dilution, Pr. rettgeri A-21205; assay type: cell-based; conditions: 37° C.; for M.I.C.: Pr. rettgeri A-21205, overnight
Protocol: as §1

[3] = tested on: Staph. aureus (Pen-Res) A-9606; experiment: MIC by tube dilution, Staph. aureus (Pen-Res) A-9606; assay type: cell-based; conditions: overnight, 37° C.
Protocol: as §1

Pr. vulgaris A-9716 = experiment: MIC by tube dilution, Pr. vulgaris A-9716; assay type: cell-based; conditions: 37° C.
Protocol: as §1

in vivo = conditions: mouse, im, 40 mg/kg
Ent. cloacae A-9659 = experiment: MIC by tube dilution, Ent. cloacae A-9659; assay type: cell-based; conditions: 37° C.
Protocol: as §1

Str. faecalis A-20688 = experiment: MIC by tube dilution, Str. faecalis A-20688; assay type: cell-based; conditions: 37° C.
Protocol: as §1

Pr. mirabilis A-9900 = experiment: MIC by tube dilution, Pr. mirabilis A-9900; assay type: cell-based; conditions: 37° C.
Protocol: as §1

[4] = Mouse blood levels after oral administration; assay type: in vivo
Text: Blood level values represent averages of 4 experiments for
d,l-2-methylpenem-3-carboxylic acid, 3 for ampicillin and 1 for
Assay Organism: Bacillus megaterium A-9737

K. pneumoniae A-15130 = experiment: MIC by tube dilution, K. pneumoniae A-15130; assay type: cell-based; conditions: 37° C.
Protocol: as §1

Ps. aeruginosa A-9843A = experiment: MIC by tube dilution, Ps. aeruginosa A-9843A; assay type: cell-based; conditions: overnight, 37° C.
Protocol: as §1

bacteria [5] = conditions: as reported in literature; cited from earlier work; remark: listed apart in the source
[6] = blood, oral, 100 mg./kg., 5 minutes after administration, read-out: Blood Level
[7] = blood, oral, 100 mg./kg., 10 minutes after administration, read-out: Blood Level
[8] = blood, oral, 100 mg./kg., 15 minutes after administration, read-out: Blood Level
[9] = blood, oral, 100 mg./kg., 30 minutes after administration, read-out: Blood Level
[10] = blood, oral, 100 mg./kg., 45 minutes after administration, read-out: Blood Level

Compound: CC(=O)NC=C[S+]([O-])C1=C(C(=O)O)N2C(=O)C(C(C)OS(=O)(=O)O)C2C1 (stereo not drawn)
β-lactamase inhibition (β-lactamases): β-lactamase inhibitor | antibacterial activity (bacteria [1]): some antibacterial activity

Compound: CC1=C(C(=O)O)N2C(=O)C[C@H]2S1 (racemic) [d,l-2-methylpenem-3-carboxylic acid, 2-Methylpenem-3-carboxylic Acid]
MIC (Str. pyogenes A-9604): 0.13 µg/mL (≈ 0.702 µM) | MIC (Str. pneumoniae A-9585): 0.03 µg/mL (≈ 0.162 µM) | MIC (Staph. aureus A-9537; A9537, Staph. aureus A-9537, overnight): 0.13 µg/mL (≈ 0.702 µM) | MIC (Staph. aureus A-9537; A9537, Staph. aureus A-9537 and 50% serum, overnight): 8 µg/mL (≈ 43.2 µM) | MIC (E. coli A-15119; Escherichia coli, A15119, E. coli A-15119, overnight): 8 µg/mL (≈ 43.2 µM) | MIC (Pr. morganii A-15153; Morganella morganii, A15153, Pr. morganii A-15153, overnight): 16 µg/mL (≈ 86.4 µM) | MIC ([2]; Staphylococcus aureus): 1 µg/mL (≈ 5.4 µM) | MIC (E. coli A-20341-1; Escherichia coli, A203411, E. coli A-20341-1, overnight): 16 µg/mL (≈ 86.4 µM) | MIC (Ps. aeruginosa A-21213): > 125 µg/mL | MIC (Ent. cloacae A-9656; Enterobacter cloacae, A9656, Ent. cloacae A-9656, overnight): 16 µg/mL (≈ 86.4 µM) | MIC (K. pneumoniae A-20468): > 125 µg/mL | MIC (Ser. marcescens A-20019; Serratia marcescens, A20019, Ser. marcescens A-20019, overnight): 8 µg/mL (≈ 43.2 µM) | MIC (Pr. rettgeri A-21205; Providencia rettgeri, A21205, Pr. rettgeri A-21205, overnight): 4 µg/mL (≈ 21.6 µM) | MIC ([3]; Staphylococcus aureus): 1 µg/mL (≈ 5.4 µM) | MIC (Pr. vulgaris A-9716; Proteus vulgaris, A9716, Pr. vulgaris A-9716, overnight): 8 µg/mL (≈ 43.2 µM) | concentration at 5 min (in vivo): 27100 ng/mL | concentration at 0.25 h (in vivo): 12700 ng/mL | concentration at 0.5 h (in vivo): < 5900 ng/mL | concentration at 0.75 h (in vivo): < 5900 ng/mL | concentration at 1 h (in vivo): < 5900 ng/mL | MIC (Ent. cloacae A-9659; Enterobacter cloacae, A9659, Ent. cloacae A-9659, overnight): 16 µg/mL (≈ 86.4 µM) | MIC (Str. faecalis A-20688; Enterococcus faecalis, A20688, Str. faecalis A-20688, overnight): 32 µg/mL (≈ 173 µM) | MIC (Pr. mirabilis A-9900; Proteus mirabilis, A9900, Pr. mirabilis A-9900, overnight): 8 µg/mL (≈ 43.2 µM) | concentration at 5 min [4, 6]: 28000 ng/mL | concentration at 10 min [4, 7]: 25100 ng/mL | concentration at 0.25 h [4, 8]: 18400 ng/mL | concentration at 0.5 h [4, 9]: < 5600 ng/mL | concentration at 0.75 h [4, 10]: < 3900 ng/mL | concentration at 1 h ([4]; blood, oral, 100 mg./kg., 60 minutes after administration, read-out: Blood Level): < 4300 ng/mL | concentration at 2 h ([4]; blood, oral, 100 mg./kg., 120 minutes after administration, read-out: Blood Level): < 4300 ng/mL | MIC (K. pneumoniae A-15130; Klebsiella pneumoniae, A15130, K. pneumoniae A-15130, overnight): 16 µg/mL (≈ 86.4 µM) | MIC (Ps. aeruginosa A-9843A; Pseudomonas aeruginosa, A9843A): 125 µg/mL (≈ 675 µM)

concentration at 5 min [4, 6]: 1500 ng/mL | concentration at 10 min [4, 7]: 7100 ng/mL | concentration at 0.25 h [4, 8]: 9900 ng/mL | concentration at 0.5 h [4, 9]: 14000 ng/mL | concentration at 0.75 h [4, 10]: 15500 ng/mL
Compound: CC1(C)S[C@@H]2[C@H](NC(=O)[C@H](N)c3ccc(O)cc3)C(=O)N2[C@H]1C(=O)O [Amoxicillin]

Compound: CC1(C)S[C@@H]2[C@H](NC(=O)[C@H](N)c3ccccc3)C(=O)N2[C@H]1C(=O)O [Ampicillin]
concentration at 5 min (in vivo): 20800 ng/mL | concentration at 0.25 h (in vivo): 22800 ng/mL | concentration at 0.5 h (in vivo): 20000 ng/mL | concentration at 0.75 h (in vivo): 11800 ng/mL | concentration at 1 h (in vivo): 7100 ng/mL | concentration at 5 min ([4]; in vivo, po, 100 mg/kg): 2100 ng/mL | concentration at 10 min ([4]; in vivo, po, 100 mg/kg): 3900 ng/mL | concentration at 0.25 h ([4]; in vivo, po, 100 mg/kg): 6100 ng/mL | concentration at 0.5 h ([4]; in vivo, po, 100 mg/kg): 8200 ng/mL | concentration at 0.75 h ([4]; in vivo, po, 100 mg/kg): 6100 ng/mL | concentration at 1 h ([4]; in vivo, po, 100 mg/kg): 7900 ng/mL | concentration at 2 h ([4]; in vivo, po, 100 mg/kg): 2800 ng/mL

Compound: C[C@@H](O)[C@H]1C(=O)N2C(C(=O)O)=C(SCCN)C[C@H]12 [Thienamycin]
antibacterial activity (bacteria [1]): highly potent broad-spectrum antibiotic

Compound: O=C(O)C1C(=CCO)OC2CC(=O)N21 (stereo not drawn) [clavulinic acid]
β-lactamase inhibition (β-lactamases): inhibits the action of certain β-lactamases | effect on in vitro and in vivo activity of some penicillins and cephalosporins (bacteria [5]): enhances the in vitro and in vivo activity of some penicillins and cephalosporins | antibacterial activity (bacteria [1]): low order of antibacterial activity

Compound: CC1=C(C(=O)O)N2C(=O)C[C@H]2S1 [d-2-methylpenem-3-carboxylic acid, (+)-2-methylpenem-3-carboxylic Acid]
MIC (Ps. aeruginosa A-21213): 63 µg/mL (≈ 340 µM) | MIC (K. pneumoniae A-20468): > 125 µg/mL | M.I.C. (Pr. rettgeri A-21205): 4 meg./ml. | M.I.C. (Ps. aeruginosa A-9843A): 32 meg./ml.

Compound: CC1=C(C(=O)O)N2C(=O)C[C@H]2S1 [l-2-methylpenem-3-carboxylic acid, (-)-2-methylpenem-3-carboxylic Acid]
M.I.C. (E. coli A-15119; E. coli A-15119, overnight): > 125 meg./ml. | M.I.C. (Pr. morganii A-15153; Pr. morganii A-15153, overnight): > 125 meg./ml. | M.I.C. [2]: > 125 meg./ml. | M.I.C. (E. coli A-20341-1; E. coli A-20341-1, overnight): > 125 meg./ml. | M.I.C. (Ps. aeruginosa A-21213; Ps. aeruginosa A-21213, overnight): > 125 meg./ml. | M.I.C. (Ent. cloacae A-9656; Ent. cloacae A-9656, overnight): > 125 meg./ml. | M.I.C. (K. pneumoniae A-20468; overnight): > 125 meg./ml. | M.I.C. (Ser. marcescens A-20019; Ser. marcescens A-20019, overnight): > 125 meg./ml. | M.I.C. (Pr. rettgeri A-21205): > 125 meg./ml. | M.I.C. [3]: > 125 meg./ml. | M.I.C. (Pr. vulgaris A-9716; Pr. vulgaris A-9716, overnight): > 125 meg./ml. | M.I.C. (Ent. cloacae A-9659; Ent. cloacae A-9659, overnight): > 125 meg./ml. | M.I.C. (Str. faecalis A-20688; Str. faecalis A-20688, overnight): 125 meg./ml. | M.I.C. (Pr. mirabilis A-9900; Pr. mirabilis A-9900, overnight): > 125 meg./ml. | M.I.C. (K. pneumoniae A-15130; K. pneumoniae A-15130, overnight): > 125 meg./ml. | M.I.C. (Ps. aeruginosa A-9843A): > 125 meg./ml.
